Test results taken from patent US8945518B2, “Formulation of dual eicosanoid system and cytokine system inhibitors for use in the prevention and treatment of oral diseases and conditions” (Unigen, Inc., priority 2002, dated 2015).
pIC50: −log10 of the molar value.

What was measured:
[1] = system: newly synthesized LTB4 (5-LOX pathway) in HT-29 cells; test: LTB4 competitive ELISA in HT-29 cells; type: cell-based; conditions: Homo sapiens, 3 μg/mL, 48 hrs
Protocol: A competitive ELISA for Leukotriene B4 (LTB4; Neogen, Inc., Cat#406110) was used to assess the effect of this UP676 formulation on newly synthesized levels of LTB4 present in each cell line as a measure UP676's inhibitory effect on the 5-LOX pathway. The assay was performed in duplicate by adding 160,000 to 180,000 cells per well in 6-well plates. […] Each treated cell line was then harvested by centrifugation and disrupted by gentle dounce homogenization lysis in physiological buffers.

recombinant ovine COX-1 = molecular target: T1, recombinant ovine COX-1 (Ovis aries, UniProt P05979); test: COX-1 peroxidase activity inhibition (TMPD, 96-well); type: biochemical
T1 sequence (P05979 25-600): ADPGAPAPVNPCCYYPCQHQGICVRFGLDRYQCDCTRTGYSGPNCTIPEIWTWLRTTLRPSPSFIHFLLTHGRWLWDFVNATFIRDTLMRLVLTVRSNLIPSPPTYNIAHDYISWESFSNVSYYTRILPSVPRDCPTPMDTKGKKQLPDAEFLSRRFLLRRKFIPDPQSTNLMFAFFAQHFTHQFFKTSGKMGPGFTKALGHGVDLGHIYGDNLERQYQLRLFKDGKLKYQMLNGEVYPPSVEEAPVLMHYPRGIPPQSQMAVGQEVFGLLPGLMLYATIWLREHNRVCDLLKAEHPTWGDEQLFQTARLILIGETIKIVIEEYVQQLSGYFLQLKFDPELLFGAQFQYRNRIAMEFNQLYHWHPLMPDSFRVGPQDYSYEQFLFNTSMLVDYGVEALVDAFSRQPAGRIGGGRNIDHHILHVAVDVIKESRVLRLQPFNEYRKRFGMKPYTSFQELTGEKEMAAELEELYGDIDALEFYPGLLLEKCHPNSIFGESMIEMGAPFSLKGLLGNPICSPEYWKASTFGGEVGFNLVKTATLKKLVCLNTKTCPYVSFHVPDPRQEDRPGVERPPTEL
Source text: (§1) In order to screen for compounds that inhibited the COX-1 and COX-2 activities, a high throughput, in vitro assay was developed that utilized the inhibition of the peroxidase activity of both enzymes. […] Briefly, the composition or compound being examined was titrated against a fixed amount of COX-1 and COX-2 enzymes. A cleavable, peroxide chromophore was included in the assay to visualize the peroxidase activity of each enzyme in presence of arachidonic acid as a cofactor. Typically, assays were performed in a 96-well format. Each inhibitor, taken from a 10 mg/mL stock solution in 100% DMSO, was tested in triplicate at room temperature using the following range of concentrations: 0, 0.1, 1, 5, 10, 20, 50, 100, and 500 μg/mL. […] The components were mixed for 10 seconds on a rotating platform, followed by the addition of 20 μL of 2 mM N,N,N′N′-tetramethyl-p-phenylenediamine dihydrochloride (TMPD) and 20 μL of 1.1 mM arachidonic acid to initiate the reaction. The plate was shaken for 10 seconds and then incubated 5 minutes before reading the absorbance at 570 nm. The inhibitor concentration vs. % inhibition was plotted and the IC50 determined by taking the half-maximal point along the isotherm and intersecting the concentration on the X-axis. The IC50 was then normalized to the number of enzyme units in the assay.

recombinant ovine COX-2 = molecular target: T2, recombinant ovine COX-2 (Ovis aries, UniProt P79208); test: COX-2 peroxidase activity inhibition (TMPD, 96-well); type: biochemical; conditions: IC50 normalized to enzyme units
T2 sequence (P79208 17-603): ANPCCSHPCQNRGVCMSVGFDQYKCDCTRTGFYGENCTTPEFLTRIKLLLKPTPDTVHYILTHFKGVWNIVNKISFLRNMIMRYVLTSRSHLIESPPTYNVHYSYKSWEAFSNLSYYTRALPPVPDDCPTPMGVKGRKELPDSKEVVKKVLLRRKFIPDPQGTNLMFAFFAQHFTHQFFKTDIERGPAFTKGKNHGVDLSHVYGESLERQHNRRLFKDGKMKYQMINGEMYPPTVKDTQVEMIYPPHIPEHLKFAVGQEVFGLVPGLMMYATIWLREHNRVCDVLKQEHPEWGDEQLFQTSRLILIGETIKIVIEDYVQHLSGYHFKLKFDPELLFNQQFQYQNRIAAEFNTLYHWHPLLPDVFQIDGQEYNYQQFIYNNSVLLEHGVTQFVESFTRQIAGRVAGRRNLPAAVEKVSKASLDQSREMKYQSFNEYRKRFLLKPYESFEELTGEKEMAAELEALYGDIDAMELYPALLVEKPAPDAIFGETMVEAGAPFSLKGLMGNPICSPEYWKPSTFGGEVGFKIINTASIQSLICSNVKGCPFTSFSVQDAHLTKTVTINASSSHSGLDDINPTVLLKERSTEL
Source text: as §1

COX-1 and COX-2 enzymes = conditions: cited from earlier work
[2] = Oxygen Radical Absorption Capacity (ORAC)
[3] = system: cox-2 gene transcription in human colon cancer DLD-1 cells; conditions: Mutoh et al. (2000), read-out: IC50, suppression of cox-2 gene transcription; cited from earlier work
[4] = literature studies of bioavailability; cited from earlier work
[5] = Stability of catechin in solution; type: physicochemical
Protocol: A total of 6 different conditions (not including control solution) were chosen for this stability investigation at 45° C. Aqueous K2HPO4 (0.5 M) or KH2PO4 (0.5 M) was utilized to make buffered solutions at pH 5 or 8, respectively. […] All seven solutions were stored in sealed bottles at 45° C.
All eight solutions were stored in sealed bottles at 45° C.

[6] = system: prostaglandin endoperoxide synthase; conditions: Kalkbrenner et al. (1992); cited from earlier work

Work on `CC(C)Cc1ccc(C(C)C(=O)O)cc1` (stereo not drawn) [Ibuprofen, ibuprofen] yielded an inhibition at 3 µg/mL [1] of 20%.
In the case of `O=C(O)[C@H]1O[C@@H](Oc2cc3oc(-c4ccccc4)cc(=O)c3c(O)c2O)[C@H](O)[C@@H](O)[C@@H]1O` [Baicalin], the “IC50 for COX-1” value (recombinant ovine COX-1; peroxidase activity, IC50 normalized to enzyme units) was 0.44 μg/mL/unit of enzyme and the “IC50 for COX-2” value (recombinant ovine COX-2) was 0.28 μg/mL/unit.
For `CC(=O)Oc1ccccc1C(=O)O` [aspirin], the “times more potent against COX-1 than COX-2” value (COX-1 and COX-2 enzymes) is listed as “more than 150 times”.
In the case of `Oc1cc(O)c2c(c1)OC(c1ccc(O)c(O)c1)C(O)C2` (stereo not drawn) [Catechin], the “Oxygen Radical Absorption Capacity (ORAC)” value [2] is listed as 20,000, the pIC50 [3] is listed as 3.38 and the “selectivity against the COX-1 enzyme” value (recombinant ovine COX-1; catechin in the UP676 formulation, COX-1 over COX-2) is listed as 2.3 fold. For the same compound, the half life [4] was 2 h, the “stability of catechin in solution, basic conditions or metal ions” value ([5]; basic conditions or metal ions such as Fe3+) was “not under basic conditions or when exposed to metal ions” and the “stability of catechin in solution, neutral conditions” value ([5]; neutral conditions, 4° C. and 40° C.) was “stable”. For the same compound, the “stability of catechin in solution, weakly basic” value ([5]; pH=7.5) was “decomposes” and the pIC50 [6] was 4.40.
